Entries after “also recorded” stand apart in the source; their conditions may differ.
Key:
[1] = system: ISR pathway (H4 ATF4-NLuc cell line); experiment: ATF4 Nano Luciferase reporter integrated stress response (ISR) assay; format: cell-based; settings: Homo sapiens; H4 ATF4-NLuc (clone 17) cells, 50 um sodium arsenite 6 hours, luminescence
Excerpt: Cellular stress leads to activation of the integrated stress response pathway through one of four eukaryotic initiation factor 2α kinases and halts global translation, while allowing for the translation of select transcripts like ATF4 (activating transcription factor 4) that are important for the response to cellular stress. During normal conditions, small open reading frames (ORFs) in the 5′ UTR of ATF4 occupy the ribosome and prevent translation of the coding sequence of ATF4. During stress conditions however, the ribosome scans past these upstream ORFs and preferentially begins translation at the coding sequence of ATF4. In this way, the translation, and thus protein level of ATF4 is a readout of ISR pathway activation. Thus, a fusion of the uORFs and the beginning of the coding sequence of ATF to a common cellular reporter like nano-luciferase allows for a sensitive and high-throughput readout of ISR pathway activity.
Compound I, or any of its forms described herein, may be tested in the following assay. […] We utilized this cell line to generate an integrated stress response (ISR) assay to evaluate the activity of ISR pathway inhibitors via luminescence readout. […]

Vacuum drying of Form B = format: physicochemical; settings: vacuum drying at room temperature
Experimental: A 1,4-dioxane solution of Form A was prepared by dissolving 20 mg in 0.2-1.0 mL of 1,4-dioxane until clear solution was obtained. Then, water was added while maintaining magnetic agitation until precipitate appeared. […] XRPD data was obtained on the wet-cake prior to drying.
Form B can only be prepared in a location where Form C has rigorously been excluded, otherwise the conditions to prepare Form B (described above) will instead produce Form C, the most thermodynamically stable form identified.

With `O=C(COc1ccc(Cl)cc1)NC12CC(c3nnc([C@H]4C[C@@H](OC(F)(F)F)C4)o3)(C1)C2` [Compound I, 2-(4-chlorophenoxy)-N-[3-[5-[cis-3-(trifluoromethoxy)cyclobutyl]-1,3,4-oxadiazol-2-yl]-1-bicyclo[1.1.1]pentanyl]acetamide] as the compound, how does the IC50 [1] read?
The IC50 was under 1 µM.

Which “form after vacuum drying” value (Vacuum drying of Form B) does the source give for `O=C(COc1ccc(Cl)cc1)NC12CC(c3nnc([C@H]4C[C@@H](OC(F)(F)F)C4)o3)(C1)C2` [Form B, 2-(4-chlorophenoxy)-N-[3-[5-[cis-3-(trifluoromethoxy)cyclobutyl]-1,3,4-oxadiazol-2-yl]-1-bicyclo[1.1.1]pentanyl]acetamide] here?
Its value is “converted to Form A; also recorded: desolvates to Form A”.

Source: patent US12662458B2, “Solid forms of a compound” (Denali Therapeutics Inc., priority 2020, dated 2026)
